The target in one data set is Large T antigen (Simian virus 40, UniProt P03070). The format is functional, Betapolyomavirus macacae.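 Note: Confirmatory-stage PubChem screen for compounds that inhibit SV40 T antigen.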
Data set [1] concerns the target T1, Corticotropin-releasing factor receptor 2/Corticotropin-releasing factor-binding protein (Homo sapiens, UniProt P24387+Q13324).
T1 sequence (Q13324 whole entry): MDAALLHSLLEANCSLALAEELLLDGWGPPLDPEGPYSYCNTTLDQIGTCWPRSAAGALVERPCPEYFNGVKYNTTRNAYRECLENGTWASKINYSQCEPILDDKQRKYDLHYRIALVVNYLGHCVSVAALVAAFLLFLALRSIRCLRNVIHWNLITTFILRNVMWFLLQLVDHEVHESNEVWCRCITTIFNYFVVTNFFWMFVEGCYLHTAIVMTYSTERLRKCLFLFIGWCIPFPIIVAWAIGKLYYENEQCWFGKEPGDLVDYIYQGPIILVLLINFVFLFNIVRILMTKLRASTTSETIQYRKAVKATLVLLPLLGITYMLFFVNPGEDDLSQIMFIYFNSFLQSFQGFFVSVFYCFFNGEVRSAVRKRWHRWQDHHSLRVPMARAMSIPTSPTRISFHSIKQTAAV
T1 sequence (P24387 whole entry): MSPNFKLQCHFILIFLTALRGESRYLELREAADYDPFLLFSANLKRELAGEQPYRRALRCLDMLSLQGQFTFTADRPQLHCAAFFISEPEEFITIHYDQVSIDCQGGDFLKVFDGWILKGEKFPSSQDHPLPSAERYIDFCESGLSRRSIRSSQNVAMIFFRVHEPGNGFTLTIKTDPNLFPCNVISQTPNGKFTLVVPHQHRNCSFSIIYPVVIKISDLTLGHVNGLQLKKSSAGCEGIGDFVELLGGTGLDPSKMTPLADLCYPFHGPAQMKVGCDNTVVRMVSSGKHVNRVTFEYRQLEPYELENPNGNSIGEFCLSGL
In words: Dose Response confirmation of uHTS hits for small molecule antagonists of the CRF-binding protein and CRF-R2 receptor complex. The note with it: read-out: IC50_Mean. Format: functional.

For data set [2], the target named is T1, Corticotropin-releasing factor receptor 2/Corticotropin-releasing factor-binding protein. Briefly: activators of CRF receptor 2 with binding protein – uHTS hits, confirmation (AID 602473). The format is functional. As to conditions: read-out: EC50_Mean.
In another data set the target is T2, Cytochrome P450 1A2 (Homo sapiens, UniProt P05177).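 Note: PubChem cytochrome P450 panel assay, CYP1A2 panel member.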
T2 sequence (P05177 whole entry): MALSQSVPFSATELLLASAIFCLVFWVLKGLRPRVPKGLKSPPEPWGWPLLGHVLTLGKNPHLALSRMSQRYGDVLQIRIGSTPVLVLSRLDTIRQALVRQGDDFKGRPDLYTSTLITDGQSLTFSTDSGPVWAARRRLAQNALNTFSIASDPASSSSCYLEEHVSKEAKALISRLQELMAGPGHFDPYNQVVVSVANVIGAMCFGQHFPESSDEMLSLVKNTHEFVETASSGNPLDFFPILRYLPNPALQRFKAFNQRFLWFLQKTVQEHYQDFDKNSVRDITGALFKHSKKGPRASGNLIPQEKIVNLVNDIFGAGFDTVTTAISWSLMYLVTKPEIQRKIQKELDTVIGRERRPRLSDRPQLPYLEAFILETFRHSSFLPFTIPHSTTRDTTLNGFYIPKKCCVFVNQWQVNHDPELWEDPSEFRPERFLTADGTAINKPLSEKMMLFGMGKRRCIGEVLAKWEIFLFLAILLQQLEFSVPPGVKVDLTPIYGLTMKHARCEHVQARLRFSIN

The next data set addresses Cytochrome P450 2C9 (Homo sapiens, UniProt P11712).
For data set [3], the target named is FAD-linked sulfhydryl oxidase ALR (Homo sapiens, UniProt P55789). Briefly: ALR-catalysed DTT oxidation blockers – biochemical, H2O2 detection, luminescence, cherry-pick, dose response (AID 493248).
The test system of a further data set is Vero. In words: cells. The format is functional. As to conditions: Chlorocebus sabaeus.
Data set [4] is described as follows: cells. The format is functional, cell-based.
Data set [5] can be described thus: cells. The format is functional, cell-based. The source holds these as a separate data set.
The target in data set [6] is Heat shock protein HSP 90-alpha (Homo sapiens, UniProt P07900). The format is functional, organism-based.
Data set [7] deals with Glyceraldehyde-3-phosphate dehydrogenase (Homo sapiens, UniProt P04406).
Data set [8] has as its target T3, RNA-binding protein pos-1 (Caenorhabditis elegans, UniProt G5EF15).
T3 sequence (G5EF15 whole entry): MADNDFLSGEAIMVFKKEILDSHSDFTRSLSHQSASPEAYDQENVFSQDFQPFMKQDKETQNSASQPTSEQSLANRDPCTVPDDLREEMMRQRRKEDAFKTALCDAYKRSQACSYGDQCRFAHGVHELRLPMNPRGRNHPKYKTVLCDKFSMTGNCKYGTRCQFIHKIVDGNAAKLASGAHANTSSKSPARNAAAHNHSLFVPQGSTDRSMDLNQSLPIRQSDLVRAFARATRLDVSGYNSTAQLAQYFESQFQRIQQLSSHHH
In words: disruptors of C. elegans POS-1 RNA interaction – biochemical, fluorescence polarization, dose response (AID 1964).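 Note: purified POS-1 fused to maltose binding protein made in E. coli; potency of compounds blocking POS-1 binding to fluorescent RNA.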 Background: Polarisation of emitted light reports the rotation of a fluorescent probe.

Data set [9] deals with T4, Zinc finger protein mex-5 (Caenorhabditis elegans, UniProt Q9XUB2).
T4 sequence (Q9XUB2 whole entry): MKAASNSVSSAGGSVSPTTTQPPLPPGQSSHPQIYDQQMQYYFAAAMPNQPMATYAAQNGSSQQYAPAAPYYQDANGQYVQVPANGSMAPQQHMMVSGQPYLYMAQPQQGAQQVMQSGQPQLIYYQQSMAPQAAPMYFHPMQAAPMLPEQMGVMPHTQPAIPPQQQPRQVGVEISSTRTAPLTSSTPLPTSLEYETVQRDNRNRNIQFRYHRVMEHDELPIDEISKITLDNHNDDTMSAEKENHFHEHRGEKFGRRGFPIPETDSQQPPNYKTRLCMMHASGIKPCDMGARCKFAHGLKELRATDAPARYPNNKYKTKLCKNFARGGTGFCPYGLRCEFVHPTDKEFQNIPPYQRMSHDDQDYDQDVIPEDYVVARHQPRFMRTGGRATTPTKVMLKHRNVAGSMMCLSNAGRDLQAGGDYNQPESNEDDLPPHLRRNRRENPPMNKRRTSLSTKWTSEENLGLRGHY
Briefly: potency of MEX-5 RNA-binding blockers – biochemical, C. elegans, fluorescence polarization, dose response (AID 1960).

A short description of data set [10]: Trypanosoma cruzi growth suppression in host cells – NIH3T3 host cells, beta-gal luminescence, confirmation (AID 2044).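 Note: intracellular parasites grown in NIH/3T3 mouse fibroblasts as host cells; luminescent beta-galactosidase reporter signal from transgenic T. cruzi replicating inside host cells; inhibitors lower the luminescence signal.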 The format is functional, cell-based.
Data set [11] can be described thus: NIH3T3 cell viability loss – ATP luminescence, mouse fibroblasts, counter-screen, dose response (AID 2010).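 Note: cells exposed to compound for about 90 hours before reading.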 The format is functional, cell-based.
Data set [12] addresses T5, Polyadenylate-binding protein 1 (Homo sapiens, UniProt P11940). In words: MLLE binding blockers, Cy5 peptide tracer – biochemical, fluorescence polarization, Cy5-PAM2 peptide, secondary, miRNA deadenylation inhibitor project, dose response (AID 602260). As to conditions: read-out: IC50_Mean. Format: functional.
Data set [13] deals with T5, Polyadenylate-binding protein 1. Briefly: MLLE domain peptide-binding blockers, IC50 – biochemical, fluorescence polarization, FITC-PAM2 peptide, dose response (AID 602259). Format: functional. The note with it: read-out: IC50_Mean.
The target of a further data set is Cytochrome P450 2C19 (Homo sapiens, UniProt P33261). Briefly: Cytochrome panel assay with activity outcomes. Panel member name: p450-cyp2c19 Compounds with AC50 equal or less than 10 uM are considered active. The format is functional. As to conditions: read-out: AC50.
Another data set deals with Cytochrome P450 2D6 (Homo sapiens, UniProt P10635).

Active and inactive are the calls of the source.

Chain of Cytochrome P450 2C9 (P11712 whole entry): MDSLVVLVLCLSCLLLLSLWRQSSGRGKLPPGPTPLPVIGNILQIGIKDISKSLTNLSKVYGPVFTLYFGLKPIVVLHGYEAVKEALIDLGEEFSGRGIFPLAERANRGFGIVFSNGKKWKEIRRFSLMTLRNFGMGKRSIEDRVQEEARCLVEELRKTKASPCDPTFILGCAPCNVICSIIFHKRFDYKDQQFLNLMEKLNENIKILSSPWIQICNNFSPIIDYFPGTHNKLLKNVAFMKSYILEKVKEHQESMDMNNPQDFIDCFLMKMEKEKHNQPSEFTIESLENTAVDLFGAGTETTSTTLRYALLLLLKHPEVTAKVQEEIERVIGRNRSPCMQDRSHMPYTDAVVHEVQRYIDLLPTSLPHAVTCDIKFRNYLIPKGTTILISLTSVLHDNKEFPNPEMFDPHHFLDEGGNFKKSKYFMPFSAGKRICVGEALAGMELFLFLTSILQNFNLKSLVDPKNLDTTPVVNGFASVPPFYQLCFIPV
Chain of FAD-linked sulfhydryl oxidase ALR (P55789 whole entry): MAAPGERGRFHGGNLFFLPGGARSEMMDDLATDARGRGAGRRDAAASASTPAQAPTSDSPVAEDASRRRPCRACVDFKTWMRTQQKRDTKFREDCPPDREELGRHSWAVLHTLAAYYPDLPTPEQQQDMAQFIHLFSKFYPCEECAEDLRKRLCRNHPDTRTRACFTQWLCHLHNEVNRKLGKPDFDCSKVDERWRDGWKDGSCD
Chain of Large T antigen (P03070 whole entry): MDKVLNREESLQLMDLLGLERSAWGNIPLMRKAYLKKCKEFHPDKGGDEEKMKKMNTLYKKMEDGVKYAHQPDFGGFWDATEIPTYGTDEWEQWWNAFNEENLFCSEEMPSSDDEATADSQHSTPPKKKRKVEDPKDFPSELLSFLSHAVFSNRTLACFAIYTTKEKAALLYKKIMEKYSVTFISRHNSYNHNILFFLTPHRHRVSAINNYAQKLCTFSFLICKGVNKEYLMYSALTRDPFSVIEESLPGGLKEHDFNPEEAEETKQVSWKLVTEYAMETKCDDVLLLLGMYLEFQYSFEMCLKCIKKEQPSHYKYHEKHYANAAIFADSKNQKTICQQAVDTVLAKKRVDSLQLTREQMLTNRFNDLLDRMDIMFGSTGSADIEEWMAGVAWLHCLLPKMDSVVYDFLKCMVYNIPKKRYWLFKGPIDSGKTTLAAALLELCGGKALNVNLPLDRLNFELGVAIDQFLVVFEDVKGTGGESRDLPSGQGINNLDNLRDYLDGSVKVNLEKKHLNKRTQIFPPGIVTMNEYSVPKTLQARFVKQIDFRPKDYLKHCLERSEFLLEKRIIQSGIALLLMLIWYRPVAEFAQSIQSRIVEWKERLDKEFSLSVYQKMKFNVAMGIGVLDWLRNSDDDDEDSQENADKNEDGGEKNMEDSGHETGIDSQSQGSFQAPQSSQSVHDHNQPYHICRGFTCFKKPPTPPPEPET
T5 sequence (P11940 whole entry, the tested form may be a part): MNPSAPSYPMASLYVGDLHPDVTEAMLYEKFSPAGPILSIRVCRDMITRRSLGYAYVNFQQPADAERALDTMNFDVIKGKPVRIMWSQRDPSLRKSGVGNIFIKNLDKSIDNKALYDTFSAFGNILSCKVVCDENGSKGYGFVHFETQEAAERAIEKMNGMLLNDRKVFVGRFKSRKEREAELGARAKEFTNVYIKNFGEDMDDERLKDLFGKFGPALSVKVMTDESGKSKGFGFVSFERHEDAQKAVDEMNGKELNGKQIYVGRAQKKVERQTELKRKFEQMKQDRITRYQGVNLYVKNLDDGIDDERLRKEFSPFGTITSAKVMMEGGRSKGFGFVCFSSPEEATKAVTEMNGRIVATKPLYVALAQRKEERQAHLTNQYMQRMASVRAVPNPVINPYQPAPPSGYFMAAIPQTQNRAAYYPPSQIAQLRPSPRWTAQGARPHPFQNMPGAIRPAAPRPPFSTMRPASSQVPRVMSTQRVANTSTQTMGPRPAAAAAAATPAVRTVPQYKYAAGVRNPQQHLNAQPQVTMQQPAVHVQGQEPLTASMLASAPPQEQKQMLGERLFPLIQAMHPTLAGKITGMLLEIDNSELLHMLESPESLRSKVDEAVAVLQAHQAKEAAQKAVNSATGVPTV
Chain of Cytochrome P450 2C19 (P33261 whole entry): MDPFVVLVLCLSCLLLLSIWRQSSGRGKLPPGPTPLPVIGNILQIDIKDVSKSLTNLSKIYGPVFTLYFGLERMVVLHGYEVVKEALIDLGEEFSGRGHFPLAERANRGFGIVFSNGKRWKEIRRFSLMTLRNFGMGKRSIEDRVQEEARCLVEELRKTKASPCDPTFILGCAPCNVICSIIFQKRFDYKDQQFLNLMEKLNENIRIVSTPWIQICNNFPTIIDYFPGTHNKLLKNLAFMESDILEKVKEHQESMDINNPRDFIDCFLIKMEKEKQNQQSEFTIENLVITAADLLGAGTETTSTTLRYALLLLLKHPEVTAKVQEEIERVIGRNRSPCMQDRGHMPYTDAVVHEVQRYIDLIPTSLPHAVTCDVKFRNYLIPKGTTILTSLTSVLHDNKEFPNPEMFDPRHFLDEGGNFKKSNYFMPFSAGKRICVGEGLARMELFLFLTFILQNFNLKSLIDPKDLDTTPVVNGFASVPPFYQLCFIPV
Chain of Glyceraldehyde-3-phosphate dehydrogenase (P04406 whole entry): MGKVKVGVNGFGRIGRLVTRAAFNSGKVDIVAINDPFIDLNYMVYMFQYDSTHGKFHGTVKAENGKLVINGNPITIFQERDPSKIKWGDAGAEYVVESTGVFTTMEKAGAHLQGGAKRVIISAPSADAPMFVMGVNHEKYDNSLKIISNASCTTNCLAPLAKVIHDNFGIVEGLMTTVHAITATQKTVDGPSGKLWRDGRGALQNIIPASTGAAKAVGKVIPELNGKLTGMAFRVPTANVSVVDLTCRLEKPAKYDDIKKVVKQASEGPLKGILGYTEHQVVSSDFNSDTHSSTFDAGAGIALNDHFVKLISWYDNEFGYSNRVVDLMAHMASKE
Chain of Cytochrome P450 2D6 (P10635 whole entry): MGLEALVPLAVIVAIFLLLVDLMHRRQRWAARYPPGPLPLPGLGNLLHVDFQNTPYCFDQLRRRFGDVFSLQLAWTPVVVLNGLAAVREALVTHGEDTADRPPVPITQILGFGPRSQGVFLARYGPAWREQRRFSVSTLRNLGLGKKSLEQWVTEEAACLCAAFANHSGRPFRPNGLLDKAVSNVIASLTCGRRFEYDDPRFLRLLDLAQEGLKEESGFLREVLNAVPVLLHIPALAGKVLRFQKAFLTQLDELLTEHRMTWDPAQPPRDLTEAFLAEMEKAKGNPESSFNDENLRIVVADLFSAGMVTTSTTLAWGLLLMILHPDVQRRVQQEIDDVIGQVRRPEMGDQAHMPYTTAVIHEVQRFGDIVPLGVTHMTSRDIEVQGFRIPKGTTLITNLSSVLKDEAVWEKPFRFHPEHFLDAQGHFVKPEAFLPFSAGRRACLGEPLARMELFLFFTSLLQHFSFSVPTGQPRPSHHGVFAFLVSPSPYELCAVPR

As for `CCOC(=O)C1=C(O)/C(=C/c2cccc(OC)c2O)N=C1C`, on Large T antigen, the IC50 was 16.4 µM (active).

As for `CCC(C)N(C(=O)COC(=O)/C=C/c1ccc(O)c(OC)c1)C1CCS(=O)(=O)C1` (stereo unspecified), the IC50 on Large T antigen is 11.4 µM (active).

For the compound `COc1ccccc1OCC(=O)NNC(=O)c1cnccn1`, the IC50 in data set [1] is > 47.1 µM (inactive). The EC50 in data set [2] was > 53 µM (inactive). The concentration at half-maximal activity (AC50) (usually the midpoint of the concentration-response curve, whichever way the signal moves) on Cytochrome P450 1A2 was 17.8 µM (inconclusive); at Cytochrome P450 2C9, “inconclusive”.

For the compound `COC(=O)CNc1c(-c2ccccc2)nc2ccc(Br)cn12`, the AC50 in data set [3] was 1.08 µM (active).

`COc1ccc([C@@]2(C(C)C)ON(c3ccccc3C(F)(F)F)C2=O)cc1`: the CC50 – broadly, the concentration at which the toxic effect on the cells reaches its halfway point – in the data set on Vero was > 25 µM (active).

With `COc1ccc(OC)c2nc(O)c(CCNC(=O)COc3ccccc3)cc12`, the AC50 result on Cytochrome P450 2C9 was “inconclusive”.

On to `COc1cccc(OCc2cc(C(=O)N3CCN(c4ccccc4OC)CC3)no2)c1`, for which the EC50 is > 350 µM (not active) in “cells [4]” and 66.7 µM (active) in “cells [5]”.

For the compound `COC(=O)[C@H](CCSC)NC(=O)C/C=C\[C@@H](C)CO`, the AC50 entry on Cytochrome P450 2C9 is given as “inconclusive”.

Consider `COc1ccc(N(C(=O)c2ccncc2)S(=O)(=O)c2ccc(Cl)cc2)cc1`, for which the AC50 in [6] is 0.354 µM (active).

`Cc1ccc(S(=O)(=O)Nc2ccc(O)c(C(=O)O)c2)c(C)c1`: in data set [7], the IC50 is recorded as > 100 µM (not active).

On to `Cc1ccc(C[S+]([O-])Cc2ccc(C(=O)N3CCN(c4ccccc4)CC3)o2)cc1` (stereo unspecified), for which the EC50 was > 300 µM (not active) in data set [8], > 300 µM (not active) in [9], 7.61 µM (active) in [10] and 33.2 µM (active) in [11]. Moreover, the AC50 in [3] is 5.92 µM (active).

As to `O=S(=O)(/C=C/c1ccccc1)NC1CCCCCC1`, the AC50 in data set [6] was 10.5 µM (active).

As to `O=C(CC1CCCCC1)Nc1nc[nH]n1`, the IC50 in data set [7] was > 10 µM (inconclusive).

Regarding `NS(=O)(=O)c1ccc(-c2ccc(C=C3C(=O)NC(=S)NC3=O)o2)cc1`, on Large T antigen, the IC50 was 10.5 µM (active).

In the case of `O=C(O)C1CSC(c2coc3ccccc3c2=O)N1` (stereo unspecified), the AC50 in data set [3] is 0.083 µM (active).

Regarding `O=C(O)CN1C(=O)C2C3CC(C2C1=O)C1C(c2ccc(F)cc2)c2sc(O)nc2SC31` (stereo unspecified), the IC50 in data set [12] and in data set [13] was > 66 µM (inactive) in each case.

`O=C(NCc1ccccc1)C(=O)c1cn(CC(=O)N2CCOCC2)c2ccccc12`: the EC50 in the data set “cells [4]” and in “cells [5]” was > 350 µM (not active) throughout.

In the case of `Cc1ccc2cc3c(N)[nH]nc3nc2c1`, on Large T antigen, the IC50 is 13.1 µM (active).

In the case of `COc1cccc(C2=NOC(C(=O)Nc3ccc(OC)c(OC)c3)C2)c1` (stereo unspecified), the AC50 at Cytochrome P450 2C19 is 25.1 µM (inconclusive); on Cytochrome P450 2C9, “inconclusive”.

For the compound `Cc1ccc(-c2nc(C#N)c(NCCN3CCCCC3)o2)cc1`, the AC50 in data set [3] is 4.4 µM (active).

Consider `Cn1c(=O)c2cc(S(=O)(=O)NCCC(=O)N3CC=C(c4ccccc4)CC3)ccc2n(C)c1=O`, for which the AC50 at Cytochrome P450 2C19 is 25.1 µM (inconclusive); at Cytochrome P450 2D6 it was 17.8 µM (inconclusive); at Cytochrome P450 1A2 it was 31.6 µM (inconclusive); on Cytochrome P450 2C9, “inconclusive”.

For `c1ccc(-n2cnc3cc(NCc4ccccn4)ccc32)cc1`, the AC50 in data set [3] was 1.17 µM (active).

For the compound `CCNc1ncc2ncc(=O)n(C3CC3)c2n1`, the AC50 entry on Cytochrome P450 2C9 is given as “inconclusive”.

As for `COc1ccc(C2(C)NC(=O)NC2=O)cc1OC` (stereo unspecified), the figures for the EC50 in “cells [4]” and in the data set “cells [5]” were > 350 µM (not active) and 116 µM (active), respectively.

Consider `NC(=S)c1cnn2c(-c3cccc(C(F)(F)F)c3)ccnc12`, for which the IC50 in data set [12] and in data set [13] was > 66 µM (inactive) in each case.

For `O=C(O)c1cscc1Cc1cccs1`, at Cytochrome P450 2C9, the AC50 result is recorded as “inconclusive”.

As to `O=C(O)c1ccccc1C(=O)Nc1ccc(-c2csc(-c3ccccc3)n2)cc1`, the AC50 in data set [3] was 0.218 µM (active).

Consider `Cc1nnc(Nc2ccc(O)cc2)nc1O`, for which, on Large T antigen, the IC50 is 33 µM (active).

As for `C=CCNC(=O)c1onc(CSc2cc(C)ccc2C)c1C(=O)O`, the AC50 in data set [3] was 4.81 µM (active).

As to `COc1ccc(C(=O)Nc2ccc(Cl)cn2)cc1Cl`, at Cytochrome P450 2C9, the AC50 entry is listed as “inconclusive”.

For the compound `CN1CCC2(CC1)N=C(c1ccc(F)cc1)C(=S)N2C(=O)c1ccc(C(C)(C)C)cc1`, the values for the EC50 in “cells [4]” and in the data set “cells [5]” were > 350 µM (not active) and 73.9 µM (active), respectively.

On to `C[C@@H]1CC[C@H](Cc2ccc(-n3cccc3)cc2)N1C(=O)OC(C)(C)C`, for which the CC50 with Vero is > 25 µM (active).

As for `OCCOCCn1c(C2CCCN2c2nc(-c3ccc(F)cc3)cs2)nc2cc(C(F)(F)F)ccc21` (stereo unspecified), the AC50 in [6] is 7.57 µM (active).

Consider `COc1ccc(Nc2nc(N/N=C/c3ccc(N(C)C)cc3)nc(C)c2[N+](=O)[O-])cc1`, for which the EC50 in the data set “cells [4]” and in “cells [5]” was > 350 µM (not active) throughout.

As to `C/C(=N/NS(=O)(=O)c1cccc([N+](=O)[O-])c1)c1c[nH]c2ccccc12`, the IC50 at Large T antigen was 17 µM (active).

For `COc1ccc(/C=N/NC(=O)c2ccccc2O)cc1CSc1ccccn1`, the EC50 in “cells [4]” and in the data set “cells [5]” was > 350 µM (not active) throughout.

Regarding `Cc1cccc(N2C(=O)C=CC2=O)c1`, in [6], the AC50 was 1.63 µM (active).

(Values after ChEMBL document CHEMBL1201862, “PubChem BioAssay data set” (2004).)
